Experimental data: ChEMBL document CHEMBL5260825, “Chemical Constituents of Bryophytes: Structures and Biological Activity” (J Nat Prod, 2018)
pIC50: −log10 of the molar value. Converted amounts (≈) assume the structure as drawn. “And” between values parts separate entries of the source, which are not always exact repeats. Equal values may be shown once.

What was measured:
[1] = system: KB; assay: Antiproliferative activity against human KB cells assessed as cell growth inhibition; type: functional, cell-based
[2] = system: P388; assay: Antiproliferative activity against mouse P388 cells assessed as cell growth inhibition; type: functional, cell-based
[3] = Cytotoxicity against mouse 3T3 cells assessed as reduction in cell viability; type: toxicity, cell-based; details: NIH3T3 cells
[4] = system: NCI-H460; assay: Antiproliferative activity against human NCI-H460 cells assessed as cell growth inhibition; type: functional
[5] = system: DU-145; assay: Antiproliferative activity against human DU-145 cells assessed as cell growth inhibition; type: functional
[6] = system: MCF7; assay: Antiproliferative activity against human MCF7 cells assessed as cell growth inhibition; type: functional, cell-based
[7] = system: M14; assay: Antiproliferative activity against human M14 cells assessed as cell growth inhibition; type: functional
[8] = system: HT-29; assay: Antiproliferative activity against human HT-29 cells assessed as cell growth inhibition; type: functional, cell-based
[9] = system: K562; assay: Antiproliferative activity against human K562 cells assessed as cell growth inhibition; type: functional
[10] = system: U-937; assay: Antiproliferative activity against human U-937 cells assessed as cell growth inhibition; type: functional
[11] = system: HCT-116; assay: Antiproliferative activity against human HCT-116 cells assessed as cell growth inhibition; type: functional
[12] = system: A549; assay: Antiproliferative activity against human A549 cells assessed as cell growth inhibition; type: functional
[13] = system: Caenorhabditis elegans; assay: Nematocidal activity against Caenorhabditis elegans; type: functional, organism-based
[14] = system: Leishmania amazonensis; assay: Antileishmanial activity against Leishmania amazonensis axenic amastigotes assessed as inhibition of parasite growth; type: functional, organism-based
[15] = system: Trypanosoma brucei brucei; assay: […] activity against Trypanosoma brucei brucei GUTat 3.1 assessed as inhibition of parasite growth measured after 72 hrs by alamar blue assay; type: functional, organism-based; details: GUTat 3.1, time 72 hrs
[16] = system: Breast carcinoma cell; assay: Antiproliferative activity against human Breast cancer cell line assessed as cell growth inhibition; type: functional, cell-based
[17] = system: Bacillus subtilis; assay: Antibacterial activity against Bacillus subtilis assessed as inhibition of bacterial growth; type: functional
[18] = system: Acinetobacter calcoaceticus; assay: Antibacterial activity against Acinetobacter calcoaceticus assessed as inhibition of bacterial growth; type: functional
[19] = system: Bacillus cereus; assay: Antibacterial activity against Bacillus cereus assessed as inhibition of bacterial growth; type: functional
[20] = system: Priestia megaterium; assay: Antibacterial activity against Bacillus megaterium assessed as inhibition of bacterial growth; type: functional
[21] = system: Cryptococcus neoformans; assay: […] activity against Cryptococcus neoformans assessed as inhibition of […]; type: functional
[22] = system: Staphylococcus aureus; assay: Antibacterial activity against Staphylococcus aureus assessed as inhibition of bacterial growth; type: functional
[23] = system: Pasteurella multocida; assay: Antibacterial activity against Pasteurella multocida assessed as inhibition of bacterial growth; type: functional
[24] = system: Haemophilus influenzae; assay: Antibacterial activity against Haemophilus influenzae assessed as inhibition of bacterial growth; type: functional
[25] = system: Neisseria meningitidis; assay: Antibacterial activity against Neisseria meningitidis assessed as inhibition of bacterial growth; type: functional
[26] = system: Streptococcus pyogenes; assay: Antibacterial activity against Streptococcus pyogenes assessed as inhibition of bacterial growth; type: functional
[27] = system: Streptococcus viridans; assay: Antibacterial activity against Streptococcus viridans assessed as inhibition of bacterial growth; type: functional
[28] = system: Aspergillus niger; assay: Antifungal activity against Aspergillus niger assessed as inhibition of microbial growth; type: functional
[29] = system: Pyricularia oryzae; assay: Antifungal activity against Pyricularia oryzae assessed as inhibition of microbial growth; type: functional, organism-based
[30] = system: Rhizoctonia solani; assay: Antifungal activity against Rhizoctonia solani assessed as inhibition of microbial growth; type: functional
[31] = system: Trichophyton mentagrophytes; assay: Antifungal activity against Trichophyton mentagrophytes assessed as inhibition of microbial growth; type: functional
[32] = system: Candida albicans; assay: Antifungal activity against Candida albicans assessed as inhibition of fungal growth by MTT assay; type: functional
[33] = system: Human immunodeficiency virus 1; assay: Antiviral activity against HIV-1; type: functional, organism-based
[34] = biological target: T1, Polyunsaturated fatty acid 5-lipoxygenase (Homo sapiens) (UniProt P09917); assay: Inhibition of ALOX5 (unknown origin) at 0.00001 M relative to control; details: dose 10 µM
T1 sequence (whole entry): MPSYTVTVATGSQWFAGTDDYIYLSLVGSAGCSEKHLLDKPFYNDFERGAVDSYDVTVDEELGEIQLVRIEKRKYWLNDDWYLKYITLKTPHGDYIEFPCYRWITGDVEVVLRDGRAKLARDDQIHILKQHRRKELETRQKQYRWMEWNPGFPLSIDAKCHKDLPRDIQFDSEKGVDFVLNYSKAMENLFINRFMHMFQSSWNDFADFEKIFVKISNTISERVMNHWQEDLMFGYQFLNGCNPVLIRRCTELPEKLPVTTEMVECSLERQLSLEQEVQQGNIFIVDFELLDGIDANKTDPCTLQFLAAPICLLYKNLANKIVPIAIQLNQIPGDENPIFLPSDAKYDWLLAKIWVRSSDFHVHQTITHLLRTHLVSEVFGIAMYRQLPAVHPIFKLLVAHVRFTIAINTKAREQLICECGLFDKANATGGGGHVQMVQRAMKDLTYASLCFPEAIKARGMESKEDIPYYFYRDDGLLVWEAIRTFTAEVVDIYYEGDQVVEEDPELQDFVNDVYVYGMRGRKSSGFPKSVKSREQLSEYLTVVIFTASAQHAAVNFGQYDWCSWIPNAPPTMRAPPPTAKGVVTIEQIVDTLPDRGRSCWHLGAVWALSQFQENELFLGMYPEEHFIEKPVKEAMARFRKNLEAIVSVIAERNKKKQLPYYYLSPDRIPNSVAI

[35] = biological target: T1, Polyunsaturated fatty acid 5-lipoxygenase (Homo sapiens); assay: Inhibition of ALOX5 (unknown origin) at 0.000001 M relative to control; details: dose 1 µM
[36] = biological target: T1, Polyunsaturated fatty acid 5-lipoxygenase (Homo sapiens); assay: Inhibition of ALOX5 (unknown origin) at 0.0000001 M relative to control; details: dose 100 nM
[37] = biological target: T1, Polyunsaturated fatty acid 5-lipoxygenase (Homo sapiens); assay: Inhibition of ALOX5 (unknown origin) at 0.00000001 M relative to control; details: dose 10 nM
[38] = species on record: Homo sapiens; assay: Inhibition of LTB3 (unknown origin) at 0.00001 M relative to control; details: dose 10 µM
[39] = species on record: Homo sapiens; assay: Inhibition of LTB3 (unknown origin) at 0.000001 M relative to control; details: dose 1 µM
[40] = species on record: Homo sapiens; assay: Inhibition of LTB3 (unknown origin) at 0.0000001 M relative to control; details: dose 100 nM
[41] = species on record: Homo sapiens; assay: Inhibition of LTB3 (unknown origin) at 0.00000001 M relative to control; details: dose 10 nM
[42] = biological target: T1, Polyunsaturated fatty acid 5-lipoxygenase (Homo sapiens); assay: Inhibition of ALOX5 (unknown origin) assessed as reduction in 5-HETE formation
[43] = biological target: T1, Polyunsaturated fatty acid 5-lipoxygenase (Homo sapiens); assay: Inhibition of ALOX5 (unknown origin) assessed as reduction in calmodulin level
[44] = biological target: Cyclooxygenase (Homo sapiens, UniProt P35354+P23219); assay: Inhibition of COX (unknown origin); type: protein assay
[45] = biological target: DNA polymerase beta (Homo sapiens, UniProt P06746); assay: Inhibition of DNA polymerase beta (unknown origin)
[46] = Antioxidant activity assessed as DPPH radical scavenging activity; type: functional
[47] = species on record: Rattus norvegicus; assay: Inhibition of iron-induced lipid peroxidation in rat brain homogenate; type: functional
[48] = biological target: Calmodulin-1 (Homo sapiens) (UniProt P0DP23); assay: Inhibition of calmodulin (unknown origin)
[49] = system: Trypanosoma brucei brucei; assay: Antitrypanosomal activity against bloodstream Trypanosoma brucei brucei assessed as parasite growth inhibition measured after 72 hrs by alamar blue assay; type: functional, organism-based
[50] = system: Plasmodium falciparum; assay: Antimalarial activity against drug sensitive Plasmodium falciparum NF54 assessed as inhibition of parasite growth; type: functional, organism-based
[51] = system: Plasmodium falciparum; assay: Antimalarial activity against drug sensitive Plasmodium falciparum KI assessed as inhibition of parasite growth; type: functional, organism-based
[52] = system: Trypanosoma brucei rhodesiense; assay: […] activity against drug sensitive Trypanosoma brucei rhodesiense assessed as inhibition of parasite growth; type: functional, organism-based
[53] = system: Trypanosoma cruzi; assay: […] activity against drug sensitive Trypanosoma cruzi assessed as inhibition of parasite growth; type: functional, organism-based
[54] = system: Leishmania donovani; assay: […] activity against drug sensitive Leishmania donovani assessed as inhibition of parasite growth; type: functional, organism-based
[55] = Inhibition of plasmodium falciparum fabZ

In the case of `CC(=O)OCC1=CO[C@H](OC(C)=O)[C@@H]2[C@H]1[C@@H]1[C@H](CC[C@@]23CO3)C1(C)C`, the IC50 [1] was 0.28 µg/mL, the IC50 [2] was 3 µg/mL (≈ 8.56 µM) and the GI50 [3] was 1.7 µM. It also gave a GI50 [4] of 4.8 µM, a GI50 [5] of 1.4 µM and a GI50 [6] of 6.8 µM. It also gave a GI50 [7] of 3.9 µM, a GI50 [8] of 1.9 µM and a GI50 [9] of 4.8 µM. The GI50 [10] was 2.6 µM, the GI50 [11] was 4.7 µM and the GI50 [12] was 9.4 µM. For the same molecule, the IC50 [13] was 111 µg/mL (≈ 317 µM), the pIC50 [14] was 5.15 and the MIC [15] was 14.5 µM (≈ 5.08 µg/mL).
With `Oc1cc2cc(c1O)Oc1ccc(cc1)CCc1cccc(O)c1Oc1cccc(c1)CC2` [MARCHANTIN A] the pIC50 [1] was 5.43, the IC50 [6] was 4 µg/mL and 11.5 µM and the pIC50 [16] was 5.26. The MIC [17] was 25 µg/mL (≈ 56.8 µM), the MIC [18] was 6.25 µg/mL (≈ 14.2 µM) and the MIC [19] was 12.5 µg/mL (≈ 28.4 µM). The MIC [20] was 25 µg/mL (≈ 56.8 µM), the MIC [21] was 12.5 µg/mL (≈ 28.4 µM) and the MIC [22] was 3.13 µg/mL and 0.0069 µM. For the same molecule, the MIC [23] was 4.5 µM (≈ 1.98 µg/mL), the MIC [24] was 72.7 µM (≈ 32 µg/mL) and the MIC [25] was 72.7 µM (≈ 32 µg/mL). The MIC [26] was 9.1 µM (≈ 4.01 µg/mL), the MIC [27] was 18.1 µM (≈ 7.97 µg/mL) and the MIC [28] was 25 µg/mL. For the same molecule, the MIC [29] was 12.5 µg/mL, the MIC [30] was 50 µg/mL and the MIC [31] was 3.13 µg/mL. It also gave an MID [32] of 2.5 µg/mL, an IC50 [33] of 5.3 µg/mL (≈ 12 µM) and an inhibition [34] of 89%. It also gave an inhibition [35] of 94%, an inhibition [36] of 45% and an inhibition [37] of 16%. The inhibition [38] was 99%, the inhibition [39] was 97% and the inhibition [40] was 70%. It also gave an inhibition [41] of 40%, an ID50 [42] of 1.85 µg/mL (≈ 4.2 µM) and an ID50 [43] of 1.85 µg/mL (≈ 4.2 µM). The IC50 [44] was 46.4 µM, the pIC50 [45] was 4.84 and the IC50 [46] was 20 µg/mL (≈ 45.4 µM). For the same molecule, the pIC50 [47] was 6.29, the ID50 [48] was 1.85 µg/mL (≈ 4.2 µM) and the IC50 [49] was 0.27 µg/mL (≈ 0.613 µM). For the same molecule, the pIC50 [50] was 5.47, the pIC50 [51] was 5.69 and the pIC50 [52] was 5.68. For the same molecule, the pIC50 [53] was 4.85, the pIC50 [54] was 5.80 and the pIC50 [55] was 4.74.
